Among the data in US10626094B2 (La Jolla Institute of Allergy & Immunology, priority 2014, dated 2020) are IC50 values, retold here.

pIC50: −log10 of the molar value.

Sequence of LMPTP-A (Low Molecular Weight Protein Tyrosine Phosphatase-A) enzyme (P24666 whole entry): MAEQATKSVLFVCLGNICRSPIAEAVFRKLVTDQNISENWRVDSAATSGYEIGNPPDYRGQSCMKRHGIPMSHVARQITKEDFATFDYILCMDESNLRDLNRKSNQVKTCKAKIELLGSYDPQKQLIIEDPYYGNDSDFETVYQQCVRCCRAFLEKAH

For this assay, the target named is LMPTP-A (Low Molecular Weight Protein Tyrosine Phosphatase-A) enzyme (Homo sapiens (Human), UniProt P24666). Put plainly: LMPTP primary screening / LMPTP (OMFP) enzyme inhibition assay, fluorescence intensity. The format is biochemical. The settings on record: LMPTP-A, OMFP substrate, method of Example 2; read-out: IC50. In a few lines:
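0.625 nM LMPTP-A with 400 μM OMFP substrate in 50 mM Bis-Tris pH 6.0, 1 mM DTT, 0.01% Triton X-100, […]. Compounds at 20 μM final. Incubated 50 min at room temperature in the dark; fluorescence intensity read.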
As to `c1csc(-c2cc(NCCCC3CCCNC3)c3ccccc3n2)c1` (stereo not drawn) [Compound I144, (3-piperidylpropyl)(2-(2-thienyl)(4-quinolyl))amine], the negative logarithm of the IC50 (pIC50) is 5.30 to 6.10.
In the case of `C[Si](C)(C)c1cccc(-c2cc(NCCCN3CCCCC3)c3ccccc3n2)c1` [Compound I145], the pIC50 is 5.30 to 6.10.
For `CS(=O)(=O)c1cccc(-c2cc(NCCCN3CCCCC3)c3ccccc3n2)c1` [Compound I146] the value was 5.30 to 6.10; for `NCc1ccc(-c2cc(NCCCN3CCCCC3)c3ccccc3n2)cc1` [Compound I148], 6.10 to 6.70.
Under `FC(F)(F)c1ccc(-c2cc(NCCCN3CCCCC3)c3ccccc3n2)c(C(F)(F)F)c1` [Compound I149] stands 6.10 to 6.70.
Under `Cc1cc(NCCCN2CCCCC2)c2ccccc2n1` [Compound I151] stands less than 5.30; under `O=[N+]([O-])c1ccc(C(F)(F)F)c(-c2cc(NCCCN3CCCCC3)c3ccccc3n2)c1` [Compound I152], 5.30 to 6.10.
With `FC(F)(F)c1ncccc1-c1cc(NCCCN2CCCCC2)c2ccccc2n1` [Compound I153], the pIC50 was 5.30 to 6.10.
Take `COc1ncccc1-c1cc(NCCCN2CCCCC2)c2ccccc2n1` [Compound I154]: the pIC50 was 5.30 to 6.10.
Under `COc1ccc(-c2cc(NCCCN3CCCCC3)c3ccccc3n2)cn1` [Compound I156] stands 5.30 to 6.10; under `CSc1ccccc1-c1cc(NCCCN2CCCCC2)c2ccccc2n1` [Compound I158], 6.10 to 6.70; under `Cc1ccccc1-c1cc(NCCCN2CCCCC2)c2ccccc2n1` [Compound I159], 5.30 to 6.10.
Regarding `Cc1cccc(-c2cc(NCCCN3CCCCC3)c3ccccc3n2)c1C` [Compound I161], the pIC50 was 5.30 to 6.10.
Under `Fc1cccc(-c2cc(NCCCC3CCCNC3)c3ccccc3n2)c1` (stereo not drawn) [Compound I162, [2-(3-fluorophenyl)(4-quinolyl)](3-piperidylpropyl)amine] stands 5.30 to 6.10; under `COc1cccc(F)c1-c1cc(NCCCN2CCCCC2)c2ccccc2n1` [Compound I164], 5.30 to 6.10; under `FC(F)(F)Oc1ccccc1-c1cc(NCCCC2CCCNC2)c2ccccc2n1` (stereo not drawn) [Compound I166, (3-piperidylpropyl){2-[2-(trifluoromethoxy)phenyl](4-quinolyl)}amine], 6.10 to 6.70.
For `c1ccc2c(NCCCN3CCCCC3)cc(-c3ccc4c(c3)OCO4)nc2c1` [Compound I167, (2-(2H-benzo[3,4-d]1,3-dioxolen-5-yl)(4-quinolyl))(3-piperidylpropyl)amine] the value was 5.30 to 6.10; for `CSc1ccc(-c2cc(NCCCN3CCCCC3)c3ccccc3n2)cc1` [Compound I169], 5.30 to 6.10; for `COc1cccc(OC)c1-c1cc(NCCCN2CCCCC2)c2ccccc2n1` [Compound I172], less than 5.30.
For the compound `COc1ccc(OC)c(-c2cc(NCCCN3CCCCC3)c3ccccc3n2)c1` [Compound I173], the negative logarithm of the IC50 (pIC50) was 5.30 to 6.10.
Under `COc1ccc(-c2cc(NCCCN3CCCCC3)c3ccccc3n2)c(OC)c1` [Compound I174] stands 5.30 to 6.10.
Under `c1c[nH]c(-c2cc(NCCCC3CCCNC3)c3ccccc3n2)c1` (stereo not drawn) [Compound I175, (3-piperidylpropyl)(2-pyrrol-2-yl(4-quinolyl))amine] stands 5.30 to 6.10.
For `Cc1nc(C)c(-c2cc(NCCCC3CCCNC3)c3ccccc3n2)s1` (stereo not drawn) [Compound I176, [2-(2,4-dimethyl(1,3-thiazol-5-yl))(4-quinolyl)](3-piperidylpropyl)amine] the value was 5.30 to 6.10; for `c1ccc2c(NCCCC3CCCNC3)cc(-c3ccoc3)nc2c1` (stereo not drawn) [Compound I177, (2-(3-furyl)(4-quinolyl))(3-piperidylpropyl)amine], 5.30 to 6.10.
`Cn1ccc(-c2cc(NCCCN3CCCCC3)c3ccccc3n2)n1` [Compound I178]: the pIC50 is less than 5.30.
For `c1ccc(-c2cc(NCCCN3CCOCC3)c3ccccc3n2)cc1` [Compound I179, (3-morpholin-4-ylpropyl)(2-phenyl(4-quinolyl))amine] the value was less than 5.30.
For `c1ccc(-c2cc(NCCN3CCCC3)c3ccccc3n2)cc1` [Compound I181, (2-phenyl(4-quinolyl))(2-pyrrolidinylethyl)amine] the value was less than 5.30.
With `CN(C)CCNc1cc(-c2ccccc2)nc2ccccc12` [Compound I183, dimethyl{2-[(2-phenyl(4-quinolyl))amino]ethyl}amine], the negative-log IC50 (pIC50) was less than 5.30.
`c1ccc(-c2nc(NCCN3CCOCC3)c3ccccc3n2)cc1` [Compound I184, (2-morpholin-4-ylethyl)(2-phenylquinazolin-4-yl)amine]: the pIC50 is less than 5.30.
In the case of `Fc1ccc(-c2cc(NCCCC3CCCNC3)c3ccccc3n2)cc1` (stereo not drawn) [Compound I188, [2-(4-fluorophenyl)(4-quinolyl)](3-piperidylpropyl)amine], the pIC50 was 5.30 to 6.10.
`O=C(NCCc1ccncc1)c1ccc(-c2cc(NCCCN3CCCCC3)c3ccccc3n2)cc1` [Compound I189]: the pIC50 is 6.10 to 6.70.
Under `CCN(CC)CCCNC(=O)c1ccc(-c2cc(NCCCN3CCCCC3)c3ccccc3n2)cc1` [Compound I190] stands 6.10 to 6.70; under `O=C(NCCN1CCCCC1)c1ccc(-c2cc(NCCCN3CCCCC3)c3ccccc3n2)cc1` [Compound I191], 6.10 to 6.70; under `O=C(NCCCN1CCOCC1)c1ccc(-c2cc(NCCCN3CCCCC3)c3ccccc3n2)cc1` [Compound I192], 6.10 to 6.70.
Under `O=C(c1ccc(-c2cc(NCCCN3CCCCC3)c3ccccc3n2)cc1)N1CCNCC1` [Compound I193, piperazinyl 4-{4-[(3-piperidylpropyl)amino](2-quinolyl)}phenyl ketone] stands 6.10 to 6.70.
Consider `O=C(c1ccc(-c2cc(NCCCN3CCCCC3)c3ccccc3n2)cc1)N1CCCCC1` [Compound I194, piperidyl 4-{4-[(3-piperidylpropyl)amino](2-quinolyl)}phenyl ketone], for which the negative logarithm of the IC50 (pIC50) was 5.30 to 6.10.
Under `NCCCNC(=O)c1ccc(-c2cc(NCCCN3CCCCC3)c3ccccc3n2)cc1` [Compound I195] stands 6.10 to 6.70; under `O=C(NC1CCNCC1)c1ccc(-c2cc(NCCCN3CCCCC3)c3ccccc3n2)cc1` [Compound I196], 6.10 to 6.70; under `O=C(NCC1CCNCC1)c1ccc(-c2cc(NCCCN3CCCCC3)c3ccccc3n2)cc1` [Compound I197], 6.10 to 6.70.
In the case of `O=C(NCCCN1CCCCC1)c1ccc(-c2cc(NCCCN3CCCCC3)c3ccccc3n2)cc1` [Compound I198], the negative logarithm of the IC50 (pIC50) is 6.10 to 6.70.
Under `COc1ccc(-c2cc(NCCc3ccccn3)c3ccccc3n2)cc1` [Compound I199, [2-(4-methoxyphenyl)(4-quinolyl)](2-(2-pyridyl)ethyl)amine] stands 5.30 to 6.10; under `COc1ccc(-c2cc(NCCCc3ccncc3)c3ccccc3n2)cc1` [Compound I200, [2-(4-methoxyphenyl)(4-quinolyl)](3-(4-pyridyl)propyl)amine], 5.30 to 6.10.
Under `COc1ccc(-c2cc(NCCc3ccncc3)c3ccccc3n2)cc1` [Compound I201, [2-(4-methoxyphenyl)(4-quinolyl)](2-(4-pyridyl)ethyl)amine] stands 5.30 to 6.10; under `Clc1cccc(-c2cc(NCCCc3cccnc3)c3ccccc3n2)c1` [Compound I202], 5.30 to 6.10.
Under `COc1ccc(-c2cc(NCCCc3cccnc3)c3ccccc3n2)cc1` [Compound I203] stands 5.30 to 6.10.
